From patent US7544803B2, “Vanilloid receptor ligands and their use in treatments” (Amgen Inc., priority 2004, dated 2009)

Point of comparison: `O=C(Nc1ccc2cccnc2c1)c1cc2ncc(C(F)(F)F)cc2s1` [Example 6, 6-Trifluoromethyl-thieno[3,2-b]pyridine-2-carboxylic acid quinolin-7-ylamide], melting point 296 °C. Against it:
- O=C(Nc1ccc2cccnc2c1)c1ccc2cc(Br)ccc2c1 [Example 32, 6-Bromo-naphthalene-2-carboxylic acid quinolin-7-ylamide] — lower, 239.5 to 241.5 °C
- O=C(Nc1ccc2cccnc2c1)c1ccc2cc(Br)ccc2n1 [Example 36, 6-Bromo-quinoline-2-carboxylic acid quinolin-7-ylamide] — lower, 156 to 157 °C
- O=C(Nc1ccc2cccnc2c1)c1cc2ccc(C(F)(F)F)cc2s1 — lower, 229.7 °C
